Results: patent US20220275372A1, “CONJUGATE AND USES THEREOF” (priority 2019, published 2022)

Columns and labels:
human hepatocytes = experiment: Cell viability in human hepatocytes; format: cell-based; conditions: 40 μM
Protocol: (§1) Cell culture and Peptide-PMO treatment. Immortalized myoblasts from healthy individual or DM1 patient with 2600 CTG repeats were cultivated in a growth medium consisting of a mix of M199:DMEM (1:4 ratio; Life technologies) supplemented with 20% FBS (Life technologies), 50 μg/ml gentamycin (Life technologies), 25 μg/ml fetuin, 0.5 ng/ml bFGF, 5 ng/ml EGF and 0.2 μg/ml dexamethasone (Sigma-Aldrich). Myogenic differentiation was induced by switching confluent cell cultures to DMEM medium supplemented with […] insulin (Sigma-Aldrich) for myoblasts. For treatment, WT or DM1 cells are differentiated for 4 days. Then, medium was changed with fresh differentiation medium with peptide-PMO conjugates at a 1, 2 ,5 10, 20 or 40 μM concentration. Cells were harvested for analysis 48 h after treatment. Cell viability was quantified in after 2 days of transfection of peptide-PMOs at 40 uM in human hepatocytes or at a 1, 2 ,5 10, 20 or 40 μM concentration in human myoblasts using a fluorescent-based assay (Promega).

human myoblasts = experiment: Cell viability in human myoblasts; format: cell-based; conditions: 1-40 μM, 48 hours
Protocol: as §1

WT mice = experiment: Recovery time after injection, WT mice; format: in vivo, mouse; conditions: 30 mg/kg, age 8-12 weeks
Protocol: (§2) Animal model and ASO injections. Experiments were carried out in the University of Oxford or in the “Centre d'études fonctionnelles” (Faculté de Médecine Sorbonne University) according to UK and French legislation respectively (Ethics committee approval #1760-2015091512001083v6). The intravenous injections in HSA-LR or C57BL/6 mice were performed by single or multiple administrations via the tail vein. Doses of 5, 7.5, 12.5, 30 or 40 mg/kg of peptide-PMO-CAG7 and 12.5 or 200 mg/kg of PMO were diluted in 0.9% saline and given at a volume of 5-6 μL/g of body weight. Multiple injections were done at 2 weeks apart. Myotonia was evaluated and tissues were harvested 2 weeks after the last injection. For long-term experiments, tissues were harvested 3 months after the injection. For toxicology measurements, tissues were harvested after 1 week. Urine was tested by ELISAs (R&D cat# MKM100) with samples diluted to fit within standard curve. Values were normalised to urinary creatinine levels (Harwell) to account for urine protein concentration

[1] = ELISA biodistribution of PMO in tissues of treated HSA-LR mice; format: in vivo, mouse; conditions: for delivery of PMO to muscle: 2 weeks after IV administration
Protocol: Animal model and ASO injections. […] The intravenous injections in HSA-LR or C57BL/6 mice were performed by single or multiple administrations via the tail vein. […] Multiple injections were done at 2 weeks apart. Myotonia was evaluated and tissues were harvested 2 weeks after the last injection. For long-term experiments, tissues were harvested 3 months after the injection. For toxicology measurements, tissues were harvested after 1 week. Urine was tested by ELISAs (R&D cat# MKM100) with samples diluted to fit within standard curve. Values were normalised to urinary creatinine levels (Harwell) to account for urine protein concentration
ELISA based measurements of oligonucleotide concentrations in tissues. […] The probe was used to detect peptide-PMOs or naked PMO concentrations in eight different tissues (brain, kidney, liver, lung, heart, diaphragm, gastrocnemius and quadriceps) from treated HSA-LR mice.

[2] = tested on: Mbnl-dependent transcripts (Clcn1 exon 7a, Serca exon22, Mbnl1 exon 5, Ldb3 exon11); experiment: RT-PCR splicing correction in muscle of HSA-LR mice; format: in vivo, mouse; conditions: for splicing defects (clcn1 exon 7a, serca exon22, mbnl1 exon 5): 30 mg/kg IV, gastrocnemius and quadriceps of HSA-LR mice, two weeks after treatment; for splicing of Clcn1 exon 7a, Serca exon22, Mbnl1 exon 5 and Ldb3 exon11: 30 and 40 mg/kg, gastrocnemius of HSA-LR mice; for duration of splicing correction after treatment / splicing correction after single low doses: HSA-LR mice; for splicing correction after single low doses: single low doses (5 and 7.5 mg/kg)
Protocol: as §2
RNA isolation, RT-PCR and qPCR analysis. For mice tissues: prior to RNA extraction, muscles were disrupted in TriReagent (Sigma-Aldrich) using Fastprep system and Lysing Matrix D tubes (MP biomedicals). For human cells: prior to RNA extraction, cells were lysed in a proteinase K buffer (500 mM NaCl, 10 mM Tris-HCl, pH 7.2, 1.5 mM MgCl2, 10 mM EDTA, 2% SDS and 0.5 mg/ml of proteinase K) for 45 min at 55° C. Total RNAs were isolated using TriReagent according to the manufacturer's protocol. One microgram of RNA was reverse transcribed using M-MLV first-strand synthesis system (Life Technologies) according to the manufacturer's instructions in a total of 20 μL. One microliter of cDNA preparation was subsequently used in a semi-quantitative PCR analysis according to standard protocol (ReddyMix, Thermo Scientific).
PCR amplification was carried out for 25-35 cycles within the linear range of amplification for each gene. PCR products were resolved on 1.5-2% agarose gels, ethidium bromide-stained and quantified with ImageJ software. The ratios of exon inclusion were quantified as a percentage of inclusion relative to total intensity of isoform signals. To quantify the mRNA expression, real-time PCR was performed according to the manufacturer's instructions. PCR cycles were a 15-min denaturation step followed by 50 cycles with a 94° C. denaturation for 15 s, 58° C. annealing for 20 s and 72° C. extension for 20 s.

mice = experiment: Mortality in mice; conditions: mouse, in vivo
[3] = 600 mg/kg (3 injections at 200 mg/kg) IV, 2 weeks post administration

## Ac-RXRRBRR-FQILY-RBRXR-B [Pip9b2-PMO]
Human hepatocytes
  cell mortality in human hepatocytes: > 50%
Human myoblasts
  cell viability of human myoblasts: induced cell mortality at lower doses

## Ac-RBRRBRRFQILYRBHBH-Ab [DPEP3.1a]
WT mice
  recovery time after injection, time AV ± SD: 10 min

## Ac-RBRRBRFQILYBRBR-B [DPEP1.9]
[1]
  delivery of PMO to muscle: able to deliver the PMO to muscle successfully
[2]
  splicing defects (clcn1 exon 7a, serca exon22, mbnl1 exon 5): corrected to wild type levels
  splicing of Clcn1 exon 7a, Serca exon22, Mbnl1 exon 5 and Ldb3 exon11: splicing normalization to wild type levels
  duration of splicing correction after treatment: at least 3 months
  splicing correction after single low doses: significant

## Ac-RBRRBRFQILYRBHBH-B [DPEP3.8]
[2]
  splicing defects (clcn1 exon 7a, serca exon22, mbnl1 exon 5): corrected to wild type levels
  splicing of Clcn1 exon 7a, Serca exon22, Mbnl1 exon 5 and Ldb3 exon11: splicing normalization to wild type levels
  duration of splicing correction after treatment: at least 3 months
  splicing correction after single low doses: significant

## CAGCAGCAGCAGCAGCAGCAG (all phosphorodiamidate morpholino (PMO); Cell-penetrating peptide conjugated to the 3' end in the conjugates, further chemistry not fully specified) [Naked PMO]
[1]; [3]
  pM in Tissue: Diaphragm: 30 pM
  pM in Tissue: Gastrocnemius: 18 pM
  pM in Tissue: Heart: 198 pM
  pM in Tissue: Kidney: 426748 pM
  pM in Tissue: Liver: 252 pM
  pM in Tissue: Lung: 113 pM
[1]; 3 injections at 200 mg/kg, 2 weeks post administration
  PMO levels in all tissues tested: low to non-detectable levels
[1]; two weeks after 3x200 mg/kg naked PMO IV
  PMO detected in muscle tissues: low pM

## Ac-RXRRBRRXR-YQFLI-RXRBRXR-B [pip6a]
Human hepatocytes
  cell mortality in human hepatocytes: > 50%
mice
  dose that cannot be tested without causing high rates of mortality in mice: > 20 mg/kg
Human myoblasts
  cell viability of human myoblasts: induced cell mortality at lower doses

## Ac-RBRRBRFQILYBRBR-E [DPEP1.9b]
[1]
  delivery of PMO to muscle: able to deliver the PMO to muscle successfully
WT mice
  recovery time after injection, time AV ± SD: 15 min
